Assay results published in PMC5562523 (Cell chemical biology, 2017).
Entries after “also recorded” stand apart in the source; their conditions may differ.

Legend:
Mtb [1] = experiment: Fractional killing and potentiation of antimicrobials; type: cell-based, Mycobacterium tuberculosis; details: pH 5.7, 3 days; for reduction in bacterial growth relative to the initial inoculum, compound alone: 10 μM AC2P36 alone or 10 μM INH alone
Proteus vulgaris = type: cell-based; details: neutral and acidic pH
S. aureus free thiols = experiment: Free thiols in S. aureus; type: cell-based, Staphylococcus aureus strain Newman; details: 20 μM, pH 5.7
Escherichia coli = type: cell-based; details: neutral and acidic pH
Staphylococcus aureus = type: cell-based; details: neutral and acidic pH
in vitro = type: cell-based; details: mouse
Mtb [2] = experiment: Intracellular reactive oxygen species; type: cell-based, Mycobacterium tuberculosis
S. aureus (ΔsodAΔsodM) = type: cell-based; details: pH 7.0 and 5.7
S. aureus = type: cell-based; details: 10 – 80 μM, pH 7.0 and 5.7, 6 hours
Mtb [3] = experiment: Bactericidal activity of AC2P36; type: cell-based, Mycobacterium tuberculosis strain CDC1551
Mtb [4] = experiment: Menadione sensitivity assay; type: cell-based, Mycobacterium tuberculosis; details: pH 5.7, dose response of AC2P36 and menadione, six days, OD
Pseudomonas auruginosa = type: cell-based; details: neutral and acidic pH
Mtb [5] = type: cell-based
Mtb free thiol pools = experiment: Free thiol pools in Mtb; type: cell-based; details: for free thiol pools relative to DMSO/untreated control: pH 7.0 and 5.7, 24 hours, 2 or 20 μM AC2P36, 20 μM auranofin, INH
[6] = test system: Mtb reporter strain CDC1551::roGFP-R12; type: cell-based, Mycobacterium tuberculosis; details: pH 7.0 and 5.7, 0.1 – 20 μM, 6 h
Enterococcus faecalis = type: cell-based; details: neutral and acidic pH
Mtb cytoplasmic pH = experiment: Cytoplasmic pH measurement; type: cell-based; details: pH 5.7, over 24 hours
Mtb [7] = experiment: Protection from AC2P36 by ROS scavenging agents; type: cell-based, Mycobacterium tuberculosis; details: pH 5.7, dose response of scavenger, six days, OD

With `CC(C)/N=c1\cc2n(-c3ccc(Cl)cc3)c3ccccc3nc-2cc1Nc1ccc(Cl)cc1` [Clofazimine, clofazimine, reference compound] the “effect on Mtb growth, compound alone” value (Mtb [1]; 100 μM clofazimine alone) was “did not impact Mtb growth”.

In the case of `COc1ccc(NC(=O)c2nc(S(C)(=O)=O)ncc2Cl)cc1Cl` [AC2P36, 5-chloro-N-(3-chloro-4-methoxyphenyl)-2-methylsulfonylpyrimidine-4-carboxamide], the “susceptibility of P. vulgaris to AC2P36” value (Proteus vulgaris) is reported as “relatively unaffected”, the “reduction in free thiols in S. aureus” value (S. aureus free thiols) is reported as ~ 30% and the “susceptibility of E. coli to AC2P36” value (Escherichia coli) is reported as “relatively unaffected”. The “susceptibility of S. aureus to AC2P36” value (Staphylococcus aureus) was “exhibit susceptibility to AC2P36”, the CC50 at 3 days (in vitro) was 17 µM and the “accumulation of intracellular ROS” value (Mtb [2]; 2 or 20 μM AC2P36, pH 7.0 and 5.7, 24 hours) was “dose-dependent and pH-dependent accumulation of reactive oxygen species; also recorded: significant induction of ROS”. For the same compound, the “enhanced sensitivity of S. aureus (ΔsodAΔsodM) to AC2P36 compared to WT” value (S. aureus (ΔsodAΔsodM)) was ~ 2 fold, the “ROS accumulation in S. aureus” value (S. aureus) was “enhanced ROS accumulation in a dose-dependent manner” and the “reduction of viability relative to the DMSO treated control” value (Mtb [3]; 20 μM AC2P36, pH 5.7, by 7 days) was ~ 100 fold. For the same compound, the “concentrations at which bactericidal activity is observed” value (Mtb [3]; pH 5.7, 6 days of treatment) was > 10 µM, the synergy with menadione (Mtb [4]) was “did not synergize” and the “synergy/potentiation in combination with rifampin” value (Mtb [1]; 10 μM AC2P36 + 0.3 μM rifampin) was “no significant synergy; also recorded: No potentiation was observed”. For the same compound, the “reduction in bacterial growth relative to the initial inoculum, compound alone” value (Mtb [1]) was “approximately 2 fold”, the “susceptibility of P. aeruginosa to AC2P36” value (Pseudomonas auruginosa) was “relatively unaffected” and the “selectivity at acidic pH (pH 5.7 vs pH 7.0 EC50)” value (Mtb [5]) was ~ 10 fold. For the same compound, the “concentrations at which Mtb growth is slowed/inhibited at neutral pH” value (Mtb [5]; pH 7.0) was > 30 μM, the “depletion of free thiols vs DMSO treated samples” value (Mtb free thiol pools; 20 μM AC2P36, pH 5.7, 24 hours) was ~ 16 fold and the “free thiol concentration after treatment” value (Mtb free thiol pools; 20 μM AC2P36, pH 5.7, 24 hours (DMSO ~1.3 μM)) was ~ 80 nM. The “reduction of free thiols” value (Mtb free thiol pools; 20 μM AC2P36, pH 7.0, 24 hours) was “reduced by one third”, the “free thiol pools relative to DMSO/untreated control” value (Mtb free thiol pools) was “significantly depleted thiol pools at both pH 7.0 and 5.7” and the “cytoplasmic redox status (roGFP)” value [6] was “leads to a reduced cytoplasm in a dose-dependent and pH-independent manner; also recorded: promotes a reduced cytoplasm in a dose-dependent and pH-independent manner”. The “susceptibility of E. faecalis to AC2P36” value (Enterococcus faecalis) was “exhibit susceptibility to AC2P36” and the “effect on Mtb cytoplasmic pH” value (Mtb cytoplasmic pH) was “does not modulate Mtb cytoplasmic pH”.

For `O[C@@H](CS)[C@@H](O)CS` (racemic) [DTT, Dithiothreitol, reference compound], the “ROS accumulation in S. aureus” value (S. aureus) was “had no effect on ROS accumulation”.

For `NNC(=O)c1ccncc1` [INH, isoniazid, reference compound], the “reduction in bacterial growth relative to the initial inoculum, compound alone” value (Mtb [1]) was “approximately 2 fold” and the “free thiol pools relative to DMSO/untreated control” value (Mtb free thiol pools) was “comparable thiol concentrations as the untreated cultures”.

For `CC(=O)N[C@@H](CS)C(=O)O` [NAC, N-acetylcysteine], the “protection of Mtb from 32 μM AC2P36” value (Mtb [7]) was “protects Mtb from killing by 32 μM AC2P36 in a dose dependent manner”.

For `CC(=O)OC[C@H]1O[C@@H]([S-])[C@H](OC(C)=O)[C@@H](OC(C)=O)[C@@H]1OC(C)=O.CCP(CC)CC.[Au+]` [auranofin, reference compound], the “reduction in free thiols in S. aureus” value (S. aureus free thiols) was ~ 30% and the “free thiol pools relative to DMSO/untreated control” value (Mtb free thiol pools) was “depleted free thiols relative to the DMSO treated control”.

For `CN(C)C(=O)/N=N/C(=O)N(C)C` [diamide, reference compound], the “accumulation of intracellular ROS” value (Mtb [2]; 20 μM diamide, neutral pH) was “resists diamide treatment”, the “accumulation of intracellular ROS” value (Mtb [2]; 20 μM diamide, pH 5.7) was “significant increase in ROS” and the “enhancement in bacterial growth relative to the initial inoculum, compound alone” value (Mtb [1]; 1 mM diamide alone) was 1.8 fold.
